Results on 66 molecules are retold here after Sander's compilation of Henry's law constants (doi:10.1016/s0045-6535(99)00082-x).

The data set in a line: Henry solubility constant Hcp at 298.15 K (mol/(m3 Pa)). To be noted: reference: Altschuh et al. (1999).
Take `Clc1ccc(C(c2ccc(Cl)cc2)C(Cl)(Cl)Cl)cc1` [1,1,1-trichloro-2,2-bis-(4-chlorophenyl)-ethane]: the “Henry solubility constant Hcp” value was 1.2.

`Clc1ccc(C(c2ccc(Cl)cc2)C(Cl)Cl)cc1` [1,1-dichloro-2,2-bis-(4-chlorophenyl)-ethane]: the “Henry solubility constant Hcp” value is 1.5.

`ClC(Cl)=C(c1ccc(Cl)cc1)c1ccc(Cl)cc1` [1,1-dichloro-2,2-bis-(4-chlorophenyl)-ethene]: the “Henry solubility constant Hcp” value came out at 0.24.

In the case of `CCC(O)CO` (stereo unspecified) [1,2-butanediol], the “Henry solubility constant Hcp” value is above 340.

For `O=[N+]([O-])c1ccc(Cl)c(Cl)c1` [1,2-dichloro-4-nitrobenzene], the “Henry solubility constant Hcp” value came to 1.2.

`OCCCCO` [1,4-butanediol]: the “Henry solubility constant Hcp” value is above 900.

On to `O=[N+]([O-])c1cc(Cl)ccc1Cl` [1,4-dichloro-2-nitrobenzene], for which the “Henry solubility constant Hcp” value came out at 0.82.

Take `Nc1cccc(Cl)c1` [1-amino-3-chlorobenzene]: the “Henry solubility constant Hcp” value stood at 9.8.

Take `CCCCN` [1-butanamine]: the “Henry solubility constant Hcp” value was determined as 0.56.

As to `CCCCCCCCCCO` [1-decanol], the “Henry solubility constant Hcp” value is 0.31.

For the molecule `CCc1cccc2ccccc12` [1-ethylnaphthalene], the “Henry solubility constant Hcp” value stood at 0.014.

On to `CCCCCCCO` [1-heptanol], for which the “Henry solubility constant Hcp” value amounted to 0.86.

With `CCCCCCO` [1-hexanol], the “Henry solubility constant Hcp” value amounted to 0.98.

With `Cc1ccccc1O` [1-hydroxy-2-methylbenzene], the “Henry solubility constant Hcp” value was determined as 6.3.

As to `Cc1cccc(O)c1` [1-hydroxy-3-methylbenzene], the “Henry solubility constant Hcp” value is 12.

With `Cc1ccc(O)cc1` [1-hydroxy-4-methylbenzene], the “Henry solubility constant Hcp” value is above 2.9.

`Cc1cccc2ccccc12` [1-methylnaphthalene]: the “Henry solubility constant Hcp” value is 0.019.

Consider `Nc1cccc2ccccc12` [1-naphthylamine], for which the “Henry solubility constant Hcp” value is 160.

On to `O=[N+]([O-])c1cccc2ccccc12` [1-nitronaphthalene], for which the “Henry solubility constant Hcp” value was 5.6.

As to `CCCCCCCCO` [1-octanol], the “Henry solubility constant Hcp” value amounted to 0.65.

Regarding `CCCO` [1-propanol], the “Henry solubility constant Hcp” value is 2.7.

Turning to `CCCCCCCCCCCCCN` [1-tridecanamine], the “Henry solubility constant Hcp” value came out at 0.09.

As for `OCC#CCO` [2-butyne-1,4-diol], the “Henry solubility constant Hcp” value is above 2000.

For `Nc1ccc([N+](=O)[O-])cc1Cl` [2-chloro-4-nitrobenzenamine], the “Henry solubility constant Hcp” value was determined as 1000.

In the case of `CCc1ccc2ccccc2c1` [2-ethylnaphthalene], the “Henry solubility constant Hcp” value was determined as 0.018.

In the case of `CC(C)CO` [2-methyl-1-propanol], the “Henry solubility constant Hcp” value was 1.1.

For the molecule `C=CC(C)(C)O` [2-methyl-3-buten-2-ol], the “Henry solubility constant Hcp” value stood at 0.47.

On to `C#CC(C)(C)O` [2-methyl-3-butyn-2-ol], for which the “Henry solubility constant Hcp” value stood at 2.5.

In the case of `Cc1ccccc1N` [2-methylbenzenamine], the “Henry solubility constant Hcp” value was found to be 5.

On to `Cc1ccc2ccccc2c1` [2-methylnaphthalene], for which the “Henry solubility constant Hcp” value worked out at 0.016.

As to `Nc1ccccc1[N+](=O)[O-]` [2-nitrobenzenamine], the “Henry solubility constant Hcp” value is 170.

On to `OCCc1ccccc1` [2-phenylethanol], for which the “Henry solubility constant Hcp” value is above 37.

Consider `CC(C)O` [2-propanol], for which the “Henry solubility constant Hcp” value was 0.92.

As to `C=CC(C)(O)CCC=C(C)C` (stereo unspecified) [3,7-dimethyl-1,6-octadien-3-ol], the “Henry solubility constant Hcp” value was determined as 0.46.

With `O=[N+]([O-])c1cccc(Cl)c1` [3-chloronitrobenzene], the “Henry solubility constant Hcp” value stood at 0.73.

Turning to `Cc1cccc(N)c1` [3-methylbenzenamine], the “Henry solubility constant Hcp” value was 5.9.

For `CC1CCCC(O)C1` (stereo unspecified) [3-methylcyclohexanol], the “Henry solubility constant Hcp” value turned out to be 2.7.

With `Cc1cccc([N+](=O)[O-])c1` [3-nitrotoluene], the “Henry solubility constant Hcp” value is 1.1.

For `OCCCc1ccccc1` [3-phenyl-1-propanol], the “Henry solubility constant Hcp” value was above 180.

Turning to `O=[N+]([O-])c1ccc(Cl)cc1` [4-chloronitrobenzene], the “Henry solubility constant Hcp” value is 2.

For the molecule `Nc1ccc([N+](=O)[O-])cc1` [4-nitrobenzenamine], the “Henry solubility constant Hcp” value came to 8600.

With `Cc1ccc([N+](=O)[O-])cc1` [4-nitrotoluene], the “Henry solubility constant Hcp” value is 1.8.

Consider `OCCCCc1ccccc1` [4-phenyl-1-butanol], for which the “Henry solubility constant Hcp” value was above 6.7.

As to `CCNc1ccccc1` [(ethylamino)-benzene], the “Henry solubility constant Hcp” value was determined as 1.

Regarding `OCc1ccccc1` [(hydroxymethyl)-benzene], the “Henry solubility constant Hcp” value was above 37.

For `CCCCCCCCCCCCN(C)C` [N,N-dimethyl-1-dodecanamine], the “Henry solubility constant Hcp” value was above 4.

For `CN(C)C1CCCCC1` [N,N-dimethylcyclohexylamine], the “Henry solubility constant Hcp” value came to 0.42.

Turning to `ClC1=C(Cl)[C@]2(Cl)[C@H]3[C@H]([C@@H]4C=C[C@H]3C4)[C@@]1(Cl)C2(Cl)Cl` [aldrin], the “Henry solubility constant Hcp” value was 0.22.

On to `Nc1ccccc1` [aminobenzene], for which the “Henry solubility constant Hcp” value stood at 5.2.

With `c1ccccc1` [benzene], the “Henry solubility constant Hcp” value came out at 0.0037.

On to `c1ccc2c(c1)cc1ccc3cccc4ccc2c1c34` [benzo[a]pyrene], for which the “Henry solubility constant Hcp” value was found to be 13.

For `OC1CCCCCCCCCCC1` [cyclododecanol], the “Henry solubility constant Hcp” value was found to be 3.4.

As to `NC1CCCCC1` [cyclohexanamine], the “Henry solubility constant Hcp” value was 2.4.

Turning to `CCCCNCCCC` [dibutylamine], the “Henry solubility constant Hcp” value is 1.

Regarding `ClC1=C(Cl)[C@]2(Cl)[C@@H]3[C@@H]4C[C@@H]([C@H]5O[C@@H]45)[C@@H]3[C@@]1(Cl)C2(Cl)Cl` [dieldrin], the “Henry solubility constant Hcp” value amounted to 0.98.

On to `ClC1=C(Cl)[C@]2(Cl)[C@@H]3[C@H]4C[C@H]([C@@H]5O[C@H]45)[C@@H]3[C@@]1(Cl)C2(Cl)Cl` [endrin], for which the “Henry solubility constant Hcp” value came to 1.6.

Consider `CCO` [ethanol], for which the “Henry solubility constant Hcp” value worked out at 1.3.

For `ClC1=C(Cl)C2(Cl)C3C(Cl)C=CC3C1(Cl)C2(Cl)Cl` (stereo unspecified) [heptachlor], the “Henry solubility constant Hcp” value is 0.034.

As for `ClC1=C(Cl)C2(Cl)C3C4OC4C(Cl)C3C1(Cl)C2(Cl)Cl` (stereo unspecified) [heptachlorepoxide], the “Henry solubility constant Hcp” value came to 0.47.

With `COc1ccc(C(c2ccc(OC)cc2)C(Cl)(Cl)Cl)cc1` [methoxychlor], the “Henry solubility constant Hcp” value was 49.

In the case of `Cc1ccccc1` [methylbenzene], the “Henry solubility constant Hcp” value turned out to be 0.0017.

For the molecule `c1ccc2ccccc2c1` [naphthalene], the “Henry solubility constant Hcp” value is 0.018.

Consider `O=[N+]([O-])c1ccccc1` [nitrobenzene], for which the “Henry solubility constant Hcp” value amounted to 1.2.

Consider `ClC1C(Cl)C(Cl)C(Cl)C(Cl)C1Cl` (stereo not drawn) [α-1,2,3,4,5,6-hexachlorocyclohexane], for which the “Henry solubility constant Hcp” value came out at 0.81.

`ClC1C(Cl)C(Cl)C(Cl)C(Cl)C1Cl` (stereo not drawn) [β-1,2,3,4,5,6-hexachlorocyclohexane]: the “Henry solubility constant Hcp” value is 22.

As for `ClC1C(Cl)C(Cl)C(Cl)C(Cl)C1Cl` (stereo unspecified) [γ-1,2,3,4,5,6-hexachlorocyclohexane], the “Henry solubility constant Hcp” value was 1.9.
